Reference: patent US20240148821A1, “PHARMACEUTICAL USE OF CYCLIC PEPTIDE COMPOUND” (CHUGAI SEIYAKU KABUSHIKI KAISHA, priority 2021, published 2024)
Bridge positions count the residues as written; N and C are the ends. Square brackets hold non-standard residues; d marks the D form. Peptide text beside a SMILES is read from it. * marks the point of attachment. hPhe(3,5-F2-4-CF3) = N[C@@H](CCc1cc(F)c(C(F)(F)F)c(F)c1)C(=O)O; hPhe(3-Cl-4-CF3) = N[C@@H](CCc1ccc(C(F)(F)F)c(Cl)c1)C(=O)O; hPhe(3-F,4-CF3) = N[C@@H](CCc1ccc(C(F)(F)F)c(F)c1)C(=O)O; NMePhe(4-CF3) = CN[C@@H](Cc1ccc(C(F)(F)F)cc1)C(=O)O; NMePhe(4-Me) = CN[C@@H](Cc1ccc(C)cc1)C(=O)O; NMeNle(6-CHF2) = CN[C@@H](CCCCC(F)F)C(=O)O; NMeGly(cPent) = CN[C@H](C(=O)O)C1CCCC1; Phe(3-I) = N[C@@H](Cc1cccc(I)c1)C(=O)O; Phe(2-F) = N[C@@H](Cc1ccccc1F)C(=O)O; NMeCha = CN[C@@H](CC1CCCCC1)C(=O)O; NMeChg = CN[C@H](C(=O)O)C1CCCCC1; NMeI = CC[C@H](C)[C@H](NC)C(=O)O; NMeD = CN[C@@H](CC(=O)O)C(=O)O; NMeL = CN[C@@H](CC(C)C)C(=O)O; NMeV = CN[C@H](C(=O)O)C(C)C; d(β3hA) = C[C@@H](N)CC(=O)O; Morpholide = C1CN(*)CCO1; NMeA = CN[C@@H](C)C(=O)O; NMeAib = CNC(C)(C)C(=O)O; Piperidide = C1CCN(*)CC1; Pyrrolidide = C1CCN(*)C1; dNMeA = CN[C@H](C)C(=O)O; Ac5c = NC1(C(=O)O)CCCC1; Aze = O=C(O)[C@@H]1CCN1; Sar = CNCC(=O)O

Tested on: Human pancreatic cancer cell line AsPC-1 (G12D mutation Kras)
Test: AsPC-1 cell growth inhibition (AsPC-1 CGI)
Format: cell-based
Conditions: read-out: AsPC-1 cell growth inhibition, 50% growth inhibitory concentration (IC50 value); 96 hours, CellTiter-Glo, values classified in ranges
Method: Test compounds were serially dilated with dimethyl sulfoxide, and 200 nL was then dispensed to a U-bottom 96-well plate using Labcyte Echo. […] The cell suspension was dispensed to a. plate containing a test compound at 100 μL per well and incubated at 37° C. in a 5% carbon dioxide gas incubator. 96 hours later, 80 μL of CellTiter-Glo (Promega) was added to each well and fluorescence was measured.

Structure (SMILES) | IC50 [nM]
CC[C@H](C)[C@@H]1NC(=O)[C@H](CC(C)C)N(C)C(=O)C[C@@H](C(=O)N(C)C)N(C)C(=O)[C@H](C2CCCC2)N(C)C(=O)[C@H](C(C)C)NC(=O)[C@H](C)N(C)C(=O)[C@H](CCc2ccc(C(F)(F)F)c(Cl)c2)NC(=O)CN(C)C(=O)[C@H](CC2CCCCC2)N(C)C(=O)[C@@H]2CCN2C(=O)[C@H](C)N(C)C1=O [Compound 102] ([NMeL]I[NMeA][Aze][NMeCha][Sar][hPhe(3-Cl-4-CF3)][NMeA]V[NMeGly(cPent)][NMeD]-NMe2; lactam N-11) | > 500
CC[C@H](C)[C@@H]1NC(=O)[C@H](CC(C)C)N(C)C(=O)C[C@@H](C(=O)N2CCOCC2)N(C)C(=O)[C@H](C2CCCCC2)N(C)C(=O)C2(CCCC2)NC(=O)[C@@H]2CCCN2C(=O)[C@H](CCc2ccc(C(F)(F)F)c(Cl)c2)NC(=O)CN(C)C(=O)[C@H](CC2CCCCC2)N(C)C(=O)CN(C)C(=O)CN(C)C1=O [Compound 1333] ([NMeL]I[Sar][Sar][NMeCha][Sar][hPhe(3-Cl-4-CF3)]P[Ac5c][NMeChg][NMeD]-Morpholide; lactam N-11) | ≤ 20
CC[C@H](C)[C@@H]1NC(=O)[C@H](CC(C)C)N(C)C(=O)C[C@@H](C)NC(=O)[C@H](CC(C)C)N(C)C(=O)C2(CCCC2)NC(=O)[C@@H]2CCCN2C(=O)[C@H](CCc2ccc(C(F)(F)F)c(F)c2)NC(=O)CN(C)C(=O)[C@H](CCCCC(F)F)N(C)C(=O)CN(C)C(=O)CN(C)C1=O [Compound 1515] (cyclo([Ac5c][NMeL][d(β3hA)][NMeL]I[Sar][Sar][NMeNle(6-CHF2)][Sar][hPhe(3-F,4-CF3)]P)) | > 500
CC[C@H](C)[C@@H]1NC(=O)[C@H](CC(C)C)N(C)C(=O)C[C@@H](C(=O)N(C)C)N(C)C(=O)[C@H](C2CCCC2)N(C)C(=O)[C@H](C)NC(=O)[C@H](C)N(C)C(=O)[C@H](CCc2ccc(C(F)(F)F)c(Cl)c2)NC(=O)CN(C)C(=O)[C@H](CC2CCCCC2)N(C)C(=O)[C@@H]2CCN2C(=O)[C@H](C)N(C)C1=O [Compound 993] ([NMeL]I[NMeA][Aze][NMeCha][Sar][hPhe(3-Cl-4-CF3)][NMeA]A[NMeGly(cPent)][NMeD]-NMe2; lactam N-11) | > 500
CC[C@H](C)[C@@H]1NC(=O)[C@H](C)N(C)C(=O)C[C@@H](C(=O)N2CCCC2)N(C)C(=O)[C@H](C(C)C)N(C)C(=O)C2(CCCC2)NC(=O)[C@@H]2CCCN2C(=O)[C@H](CCc2ccc(C(F)(F)F)c(Cl)c2)NC(=O)[C@@H](C)N(C)C(=O)[C@H](CC2CCCCC2)N(C)C(=O)[C@@H]2CCCN2C(=O)CN(C)C1=O [Compound 1715] ([NMeA]I[Sar]P[NMeCha][dNMeA][hPhe(3-Cl-4-CF3)]P[Ac5c][NMeV][NMeD]-Pyrrolidide; lactam N-11) | > 500
CC[C@H](C)[C@@H]1NC(=O)[C@H](CC(C)C)N(C)C(=O)C[C@@H](C(=O)N2CCCCC2)N(C)C(=O)[C@H](CC(C)C)NC(=O)C(C)(C)N(C)C(=O)[C@H](Cc2ccccc2F)NC(=O)[C@H](Cc2cccc(I)c2)NC(=O)CN(C)C(=O)[C@H](Cc2ccc(C)cc2)N(C)C(=O)CN(C)C(=O)CN(C)C1=O [Compound 556] ([NMeL]I[Sar][Sar][NMePhe(4-Me)][Sar][Phe(3-I)][Phe(2-F)][NMeAib]L[NMeD]-Piperidide; lactam N-11) | > 500
CC[C@H](C)[C@@H]1NC(=O)[C@H](CC(C)C)N(C)C(=O)C[C@@H](C(=O)N2CCCC2)N(C)C(=O)[C@H]([C@@H](C)CC)N(C)C(=O)C2(CCCC2)NC(=O)[C@@H]2CCCN2C(=O)[C@H](CCc2cc(F)c(C(F)(F)F)c(F)c2)NC(=O)CN(C)C(=O)[C@H](Cc2ccc(C(F)(F)F)cc2)N(C)C(=O)[C@@H]2CCN2C(=O)[C@H](C)N(C)C1=O [Compound 1343] ([NMeL]I[NMeA][Aze][NMePhe(4-CF3)][Sar][hPhe(3,5-F2-4-CF3)]P[Ac5c][NMeI][NMeD]-Pyrrolidide; lactam N-11) | ≤ 20
